Some test systems named below: BT-549 breast; EKVX NSCLC; MALME-3M melanoma; MCF7 breast; NCI/ADR-RES ovarian; OVCAR-4 ovarian; OVCAR-5 ovarian; SK-MEL-5 melanoma; SN12C renal; UO-31 renal.
Assay in all cases: NCI anticancer screen, dose series, 48 h

Where “and” joins values, the source holds several entries; their conditions need not be identical. Identical values can stand only once.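 Cells were grown in 96-well plates and exposed to each compound for 48 hours at five concentrations; endpoints were interpolated linearly between bracketing concentrations, or set to the highest concentration if not reached. Abbreviation: GI50, concentration required for 50% inhibition of growth. At the TGI there is no net growth.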

For the molecule `O=C(O)C[C@H](O)C[C@H](O)/C=C/c1c(C2CC2)nc2ccccc2c1-c1ccc(F)cc1`, the GI50 in the experiment with BT-549 breast is 18.1 µM and 4.11 µM; with EKVX NSCLC, 23.1 µM and 5.16 µM; with MALME-3M melanoma, over 100 µM; in the experiment with MCF7 breast it was 54.7 µM and > 21.9 µM; in the experiment with NCI/ADR-RES ovarian it was 2.82 µM and 0.86 µM; with OVCAR-4 ovarian, 22.8 µM and 8.04 µM. Besides, the GI50 in the experiment on OVCAR-5 ovarian is 52.6 µM and 7.32 µM; in the experiment on SK-MEL-5 melanoma it was 12.8 µM and 1.32 µM; in the experiment on SN12C renal, 2.4 µM and 0.668 µM; in the experiment with UO-31 renal, 16 µM and 3.48 µM. Further, the TGI in the experiment on BT-549 breast, with EKVX NSCLC, with MALME-3M melanoma, with MCF7 breast, with NCI/ADR-RES ovarian and with OVCAR-4 ovarian was over 100 µM in each case. The TGI with OVCAR-5 ovarian is over 100 µM; in the experiment on SK-MEL-5 melanoma, 31.1 µM and 3.56 µM; in the experiment with SN12C renal it was over 100 µM; with UO-31 renal, over 100 µM.
Consider `O=C(O)C(Cc1cnc[nH]1)N1C(=O)c2ccccc2C1=O` (stereo not given), for which the TGI in the experiment on BT-549 breast, with EKVX NSCLC, in the experiment on MALME-3M melanoma, in the experiment with MCF7 breast, in the experiment on NCI/ADR-RES ovarian and with OVCAR-4 ovarian was over 100 µM throughout. Besides, the TGI in the experiment on OVCAR-5 ovarian, in the experiment on SK-MEL-5 melanoma, with SN12C renal and in the experiment with UO-31 renal was over 100 µM in each case.
Regarding `CC1=CC2C(C(O)CC3(C)C2CC(C)C32OCOC23COCO3)C2(C)C/C(=C/O)C(=O)C=C12` (stereo not given), the GI50 with BT-549 breast was 1.62 µM; in the experiment with EKVX NSCLC, 2.31 µM; with MALME-3M melanoma it was 1.84 µM; with MCF7 breast it was 2.69 µM; in the experiment on NCI/ADR-RES ovarian it was 2.28 µM; in the experiment with OVCAR-4 ovarian, 1.74 µM. Moreover, the GI50 in the experiment with OVCAR-5 ovarian is 1.98 µM; with SK-MEL-5 melanoma it was 1.74 µM; in the experiment on SN12C renal, 2.5 µM; with UO-31 renal, 1.52 µM. Also, the TGI in the experiment on BT-549 breast was determined as 3.17 µM; with EKVX NSCLC it was 7.48 µM; in the experiment with MALME-3M melanoma, 3.58 µM; in the experiment on MCF7 breast, 10.1 µM; in the experiment with NCI/ADR-RES ovarian, 4.8 µM; in the experiment with OVCAR-4 ovarian it was 3.83 µM. Moreover, the TGI stood at 3.92 µM in the experiment on OVCAR-5 ovarian, 3.16 µM with SK-MEL-5 melanoma, 6.39 µM in the experiment on SN12C renal and 3.04 µM with UO-31 renal.
For the molecule `Fc1ccc(-c2ncn(C3CCNCC3)c2-c2ccnc(Oc3ccc4c(c3)OCO4)n2)cc1`, the GI50 in the experiment with BT-549 breast was over 21.3 µM; in the experiment with EKVX NSCLC, over 25 µM; in the experiment with MALME-3M melanoma it was 21.4 µM; in the experiment on MCF7 breast, 9.14 µM; in the experiment on NCI/ADR-RES ovarian, over 25 µM; in the experiment with OVCAR-4 ovarian it was 19.7 µM. Besides, the GI50 was over 25 µM in the experiment on OVCAR-5 ovarian, 3.77 µM with SK-MEL-5 melanoma, 16.7 µM in the experiment with SN12C renal and 7.81 µM with UO-31 renal. Moreover, the TGI with BT-549 breast, in the experiment with EKVX NSCLC, in the experiment on MALME-3M melanoma, in the experiment with MCF7 breast, in the experiment with NCI/ADR-RES ovarian and in the experiment with OVCAR-4 ovarian was over 25 µM throughout. Also, the TGI in the experiment on OVCAR-5 ovarian is over 25 µM; in the experiment on SK-MEL-5 melanoma, 8.4 µM; in the experiment on SN12C renal, over 25 µM; with UO-31 renal it was over 25 µM.
Regarding `CCOC(=O)N1C/C(=C\c2ccccc2)C(=O)/C(=C/c2ccccc2)C1`, the TGI with BT-549 breast was 4.54 µM; in the experiment on EKVX NSCLC it was 31.8 µM; with MALME-3M melanoma, 16.9 µM; in the experiment on MCF7 breast it was over 20.9 µM; in the experiment with NCI/ADR-RES ovarian, 36.6 µM; in the experiment with OVCAR-4 ovarian, 13.6 µM. For the same molecule, the TGI in the experiment with OVCAR-5 ovarian amounted to 18.2 µM; in the experiment on SK-MEL-5 melanoma, 6.2 µM; in the experiment with SN12C renal it was 5.61 µM; in the experiment on UO-31 renal, 12.4 µM.
With `c1ccc(-c2nn3c(c2-c2ccnc4cc(OCCN5CCOCC5)ccc24)CCC3)nc1`, the GI50 with BT-549 breast is over 79.9 µM; in the experiment on EKVX NSCLC, over 100 µM; in the experiment on MALME-3M melanoma, 90.3 µM; with MCF7 breast, 12.9 µM; with NCI/ADR-RES ovarian it was 52.4 µM; with OVCAR-4 ovarian it was over 100 µM. Moreover, the GI50 in the experiment with OVCAR-5 ovarian was 72.1 µM; in the experiment on SK-MEL-5 melanoma, 43.9 µM; in the experiment on SN12C renal it was 50.4 µM; in the experiment on UO-31 renal, 10.8 µM. Also, the TGI in the experiment with BT-549 breast, in the experiment with EKVX NSCLC, in the experiment on MALME-3M melanoma, in the experiment with MCF7 breast, in the experiment on NCI/ADR-RES ovarian and in the experiment with OVCAR-4 ovarian was over 100 µM each time. Moreover, the TGI in the experiment with OVCAR-5 ovarian, with SK-MEL-5 melanoma, in the experiment with SN12C renal and with UO-31 renal was over 100 µM throughout.
Regarding `COC(C)(C)[C@@H](O)[C@H](O)C[C@H](C)C1=C2CC[C@@H]3[C@@]4(C)CC[C@@H](OC(C)=O)C(C)(C)[C@@H]4C[C@@H](OC4OC(COC(C)=O)C(O)C(O)C4O)[C@@]3(C)[C@]2(C)CC1` (stereo not given in full), the GI50 in the experiment with BT-549 breast is 15.1 µM; in the experiment with EKVX NSCLC it was 13 µM; in the experiment with MALME-3M melanoma, 15.2 µM; in the experiment on MCF7 breast it was 2.62 µM; in the experiment with NCI/ADR-RES ovarian it was 15.2 µM; in the experiment with OVCAR-4 ovarian, 10.8 µM. The GI50 in the experiment on OVCAR-5 ovarian is 14.9 µM; with SK-MEL-5 melanoma, 14.4 µM; with SN12C renal, 13.4 µM; with UO-31 renal it was 13.6 µM. Further, the TGI in the experiment with BT-549 breast worked out at 28.7 µM; in the experiment with EKVX NSCLC, 26.2 µM; with MALME-3M melanoma, 29.4 µM; with MCF7 breast, 12.4 µM; in the experiment with NCI/ADR-RES ovarian, 29.4 µM; in the experiment on OVCAR-4 ovarian, 23.1 µM. For the same molecule, the TGI with OVCAR-5 ovarian turned out to be 28.1 µM; in the experiment on SK-MEL-5 melanoma, 27.8 µM; in the experiment with SN12C renal it was 26.4 µM; with UO-31 renal, 26.9 µM.
`C#C[C@]1(O)CC[C@H]2[C@@H]3CC=C4c5sc(Nc6cc(F)ccc6F)nc5CC[C@]4(C)[C@H]3CC[C@@]21C`: the GI50 in the experiment with BT-549 breast is 0.661 µM; in the experiment on EKVX NSCLC, 1.53 µM; in the experiment with MALME-3M melanoma, 1.4 µM; with MCF7 breast, 1.5 µM; in the experiment with NCI/ADR-RES ovarian, 2.79 µM; with OVCAR-4 ovarian, 3.25 µM. The GI50 with OVCAR-5 ovarian was 1.93 µM; with SK-MEL-5 melanoma, 1.74 µM; in the experiment on SN12C renal, 2.15 µM; in the experiment on UO-31 renal it was 1.14 µM. In addition, the TGI with BT-549 breast was 2.43 µM; in the experiment on EKVX NSCLC, 3.06 µM; in the experiment on MALME-3M melanoma it was 2.97 µM; with MCF7 breast, 3.26 µM; in the experiment with NCI/ADR-RES ovarian, 13.8 µM; in the experiment with OVCAR-4 ovarian it was 11.4 µM. The TGI in the experiment with OVCAR-5 ovarian stood at 5.18 µM; with SK-MEL-5 melanoma it was 3.16 µM; in the experiment with SN12C renal, 5.23 µM; with UO-31 renal, 2.35 µM.

For the origin of these results see PubChem BioAssay (NCI).
